The source made the active and inactive calls. No stated cut-off is given here; in the data, actives have a measured IC50 and inactives only a lower limit.

In the assay the target is Envelope glycoprotein gp160 (Human immunodeficiency virus 1, UniProt Q6QLK5). Nature of the assay: inhibitors of HIV fusion peptide binding, primary screen, biochemical, uHTS, fluorescence dequenching (AID 1986).
Envelope glycoprotein gp160, sequence (Q6QLK5 whole entry, the tested form may be a part): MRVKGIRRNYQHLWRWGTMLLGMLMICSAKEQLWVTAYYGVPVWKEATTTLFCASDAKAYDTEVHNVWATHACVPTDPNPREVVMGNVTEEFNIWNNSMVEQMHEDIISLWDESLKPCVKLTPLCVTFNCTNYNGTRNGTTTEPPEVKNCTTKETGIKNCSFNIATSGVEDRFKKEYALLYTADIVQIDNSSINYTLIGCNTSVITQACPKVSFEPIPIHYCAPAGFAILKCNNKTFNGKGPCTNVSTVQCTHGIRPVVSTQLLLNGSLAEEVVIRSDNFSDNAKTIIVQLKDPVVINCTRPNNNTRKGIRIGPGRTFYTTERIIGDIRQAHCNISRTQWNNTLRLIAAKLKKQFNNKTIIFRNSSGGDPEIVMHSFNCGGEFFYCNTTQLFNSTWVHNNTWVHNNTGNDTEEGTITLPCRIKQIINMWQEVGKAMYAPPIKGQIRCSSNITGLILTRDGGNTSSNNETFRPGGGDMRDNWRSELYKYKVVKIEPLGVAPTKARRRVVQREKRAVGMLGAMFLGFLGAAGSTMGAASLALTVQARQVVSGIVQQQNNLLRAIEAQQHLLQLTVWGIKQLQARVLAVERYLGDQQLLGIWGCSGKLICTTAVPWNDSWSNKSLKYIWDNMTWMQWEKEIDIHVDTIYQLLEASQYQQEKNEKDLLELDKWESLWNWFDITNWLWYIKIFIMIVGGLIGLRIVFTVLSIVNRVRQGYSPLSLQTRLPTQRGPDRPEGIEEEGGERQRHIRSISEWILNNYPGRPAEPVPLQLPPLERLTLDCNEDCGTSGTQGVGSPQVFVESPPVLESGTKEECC
As a reminder, the IC50 is the concentration at which inhibition is half-maximal. In the case of `COc1cc(/C=C(\C#N)c2nc3cc(C)ccc3[nH]2)cc([N+](=O)[O-])c1O`, the IC50 was 18.7 µM (active).
In the case of `CCc1ccc(/C=C2\SC(=S)N(CCCC(=O)Nc3ccccc3C(=O)O)C2=O)cc1`, the IC50 is 12.4 µM (active).
Regarding `CCOc1ccc(C2C(C(=O)Nc3ccccc3)=C(C)N=c3s/c(=C/c4cccc(OCC(=O)O)c4)c(=O)n32)cc1` (stereo not drawn), the IC50 was 28.8 µM (active).

Values taken from ChEMBL document CHEMBL1201862, “PubChem BioAssay data set” (2004).
